Source: patent publication US9321782B2, “Process for preparation of novel 42-O-(heteroalkoxyalkyl) rapamicin compounds with anti-proliferative properties” (MERIL LIFE SCIENCES PVT. LTD., priority 2010, dated 2016)

Columns and labels:
[1] = Stability analysis (HPLC purity on storage) without BHT at various temperatures; format: physicochemical; conditions: without BHT
Protocol: (§1) To check the purity of the 42-O-(heteroalkoxyalkyl) rapamycin compounds the following condition was followed by using High Performance Liquid Chromatography, Phenomenex Synergi Hydro-RP 80a (250×4.6 ) mm, 4 micron column. The mobile phase was 65:15:20 methanol:acetonitile:water mixture. The detector was set at 276 nm and the flow rate was adjusted to 1.5 mL/min. Column temperature was 40° C. 2.0 μg of 42-O-(heteroalkoxyalkyl) rapamycin compounds was injected onto the column in a volume of 5.0 μL methanol with run time of 50 min.
The purity loss was higher at increased temperature, but there was no apparent change in the impurity profile. Table 2A presents the purity of various 42-O-(heteroalkoxyalkyl) rapamycin compounds at different time intervals and temperature conditions.

[2] = Stability analysis (HPLC purity on storage) with various concentrations of BHT at 40° C.; format: physicochemical; conditions: sealed container
Protocol: as §1
The inventors have also conducted the stability study of various 42-O-(heteroalkoxyalkyl) rapamycin compounds as mentioned above using various BHT concentrations. The study was conducted at 40° C. temperature in sealed container for 8 weeks.
42-O-(heteroalkoxyalkyl) rapamycin compounds obtained as per procedure described in Example 1 are respectively added with anti-oxidant, namely Butylated Hydroxytoluene (or BHT), at a concentration of 0.1%, 0.2%, 0.5%, and 1.0% (w/w) based on 100% (w/w) of 42-O-(heteroalkoxyalkyl) rapamycin compounds in sealed container to study the stability at 40° C. temperature. […] The purity data with the addition of different amounts of anti-oxidant as added to 42-O-(tetrahydrofuran-3-yl) rapamycin compound, 42-O-(oxetan-3-yl) rapamycin compound and 42-O-(tetrahydropyran-3-yl) rapamycin compound checked at different time intervals are summarized in Table 2B as below mentioned.

COC1CC(C[C@H](C)[C@@H]2CC(=O)[C@H](C)/C=C(\C)C(O)[C@@H](OC)C(=O)[C@H](C)C[C@H](C)/C=C/C=C/C=C(\C)[C@@H](OC)C[C@@H]3CC[C@@H](C)[C@@](O)(O3)C(=O)C(=O)N3CCCC[C@H]3C(=O)O2)CCC1OC1CCCOC1 (stereo partly shown) [Merilimus-3, 42-O-(tetrahydropyran-3-yl) rapamycin]
Purity (%) ([1]; 5° C. (sealed), 00 weeks after synthesis): 97.3% | Purity (%) ([1]; 5° C. (sealed), 02 weeks after synthesis): 96.0% | Purity (%) ([1]; 5° C. (sealed), 04 weeks after synthesis): 95.4% | Purity (%) ([1]; 5° C. (sealed), 08 weeks after synthesis): 94.5% | Purity (%) ([1]; 5° C. (sealed), 12 weeks after synthesis): 93.9% | Purity (%) ([1]; 25° C. (sealed), 00 weeks after synthesis): 97.6% | Purity (%) ([1]; 25° C. (sealed), 02 weeks after synthesis): 95.7% | Purity (%) ([1]; 25° C. (sealed), 04 weeks after synthesis): 95.2% | Purity (%) ([1]; 25° C. (sealed), 08 weeks after synthesis): 94.6% | Purity (%) ([1]; 25° C. (sealed), 12 weeks after synthesis): 93.5% | Purity (%) ([1]; 25° C. (unsealed), 00 weeks after synthesis): 97.0% | Purity (%) ([1]; 25° C. (unsealed), 02 weeks after synthesis): 95.3% | Purity (%) ([1]; 25° C. (unsealed), 04 weeks after synthesis): 94.5% | Purity (%) ([1]; 25° C. (unsealed), 08 weeks after synthesis): 93.8% | Purity (%) ([1]; 25° C. (unsealed), 12 weeks after synthesis): 93.1% | Purity (%) ([1]; 40° C. (sealed), 00 weeks after synthesis): 97.5% | Purity (%) ([1]; 40° C. (sealed), 02 weeks after synthesis): 94.4% | Purity (%) ([1]; 40° C. (sealed), 04 weeks after synthesis): 93.7% | Purity (%) ([1]; 40° C. (sealed), 08 weeks after synthesis): 92.3% | Purity (%) ([1]; 40° C. (sealed), 12 weeks after synthesis): 91.6% | Purity (%) ([2]; BHT 0.0% (w/w), 0 week): 97.5% | Purity (%) ([2]; BHT 0.0% (w/w), 2 weeks): 94.4% | Purity (%) ([2]; BHT 0.0% (w/w), 4 weeks): 93.7% | Purity (%) ([2]; BHT 0.0% (w/w), 8 weeks): 92.3% | Purity (%) ([2]; BHT 0.1% (w/w), 0 week): 97.5% | Purity (%) ([2]; BHT 0.1% (w/w), 2 weeks): 95.9% | Purity (%) ([2]; BHT 0.1% (w/w), 4 weeks): 94.3% | Purity (%) ([2]; BHT 0.1% (w/w), 8 weeks): 93.6% | Purity (%) ([2]; BHT 0.2% (w/w), 0 week): 97.6% | Purity (%) ([2]; BHT 0.2% (w/w), 2 weeks): 96.3% | Purity (%) ([2]; BHT 0.2% (w/w), 4 weeks): 95.6% | Purity (%) ([2]; BHT 0.2% (w/w), 8 weeks): 94.1% | Purity (%) ([2]; BHT 0.5% (w/w), 0 week): 97.3% | Purity (%) ([2]; BHT 0.5% (w/w), 2 weeks): 96.5% | Purity (%) ([2]; BHT 0.5% (w/w), 4 weeks): 95.9% | Purity (%) ([2]; BHT 0.5% (w/w), 8 weeks): 94.5% | Purity (%) ([2]; BHT 1.0% (w/w), 0 week): 97.4% | Purity (%) ([2]; BHT 1.0% (w/w), 2 weeks): 96.6% | Purity (%) ([2]; BHT 1.0% (w/w), 4 weeks): 95.6% | Purity (%) ([2]; BHT 1.0% (w/w), 8 weeks): 94.9%
